According to patent US20150166664A1, “NOVEL THERAPEUTIC TREATMENTS WITH ANTI-HER2 ANTIBODIES HAVING A LOW FUCOSYLATION” (Glycotope GmbH, priority 2012, published 2015):

Tests used:
[1] = Prevention of infusion related reactions by pre-medication; assay type: in vivo, human; details: pretreatment with paracetamol 1000 mg evening before and 1 h before, optionally methylprednisolone 125 mg 30 min before
Experimental: Without the use of steroids, IRRs occurred in all but one patient, at least once (grade 1 to 3). Therefore, it is recommended to use a pre-medication comprising and preferably consisting of steroids and paracetamol and to restrict the respective pre-medication to the first infusion and the single next infusion following an IRR. Preferably, paracetamol is given on the evening before and one hour before the infusion with the reduced […] anti-HER2 antibody. Steroids (for example 125 mg methylprednisolone) preferably will be administered 30 minutes before the infusion to the patient.

[2] = tested on: SK-BR-3 cells; assay: MTT proliferation assay; assay type: cell-based, human; details: 20 nM, 4 days, positive control
Experimental: MTT assay is a non-radioactive assay based on the cleavage of the soluble yellow tetrazolium salt MTT (3-[4,5-Dimethylthiazol-2-yl]-2,5-diphenyltetrazolium bromide; Thiazolyl Blue) by mitochondrial dehydrogenases of viable cells. […] The absorption signal is a direct measure of viable cells in the culture.
Briefly, SK-BR-3 cells were grown for 2 days in 96-well flat bottom plates. […] Supernatant was completely removed and MTT was added. Cells were incubated for 2 hours with MTT at 37° C. in a humidified CO2 incubator. The supernatant was removed and cells were lysed using HCl and 2-propanol containing lysis buffer for 1 h at room temperature in the dark. Absorption at 570 nm/630 nm was measured in a plate reader Infinite F200 (Tecan Austria GmbH).

[3] = tested on: incurable, locally advanced, recurrent or metastatic solid tumors; details: i.v. every 3 weeks, cited from earlier work

Which “patients who did not show any IRR upon Fuc− trastuzumab infusion” value [1] does the source give for `CC(=O)Nc1ccc(O)cc1` [paracetamol, N-(4-hydroxyphenyl)acetamide] here?
Its value is about 50%.

With `CC(=O)O[C@H]1C(=O)[C@@]2(C)[C@H]([C@H](OC(=O)c3ccccc3)[C@]3(O)C[C@H](OC(=O)[C@H](O)[C@@H](NC(=O)c4ccccc4)c4ccccc4)C(C)=C1C3(C)C)[C@]1(OC(C)=O)CO[C@@H]1C[C@@H]2O` [Taxol, paclitaxel] as the molecule, how does the “proliferation compared to the medium control” value [2] read?
The value was 6%.

With “pertuzumab: anti-HER2 antibody, HER dimerisation inhibitor” as the molecule, how does the confirmed partial responses [3] read?
Its confirmed partial responses is 2 Patients.

And the tumor regression ([3]; patients evaluable for response)?
The tumor regression was 3 of 20.
